Results reported in patent EP0156233A2, “Use of leukotriene antagonists for producing cytoprotective pharmaceutical compositions and process for producing cytoprotective pharmaceutical compositions” (Merck & Co., Inc., priority 1984, dated 1985).

Tested on: S.D. rats
Test: Indomethacin-Induced Ulcer Assay (assay B)
Assay type: in vivo
Details: 15 min prior to indomethacin 10 mg/kg p.o., 24 hr. fasted rats, sacrificed four hours later
Protocol: B. Indomethacin-Induced Ulcer Assay
Indomethacin, 10 mg/kg p.o., is used to induce ulcers in 24 hr. fasted S.D. rats. Fifteen minutes prior to indomethacin administration, groups of rats each receive either an aqueous vehicle (5% wt. methylcellulose) or the test compound at various doses perorally. Four hours later the animals are sacrificed and stomach mucosae are examined for resulting ulcers.
Following the procedure of assay B (Indomethacin-Induced Ulcer Assay), various compounds were tested for ulcer inhibition.

Structure (SMILES)	% Inhib. (Dose 30 mg/kg p.o.) [%]	% Inhib. (Dose 0.1 mg/kg p.o.) [%]	% Inhib. (Dose 1 mg/kg p.o.) [%]	% Inhib. (Dose 10 mg/kg p.o.) [%]	further results
CCCc1c(OCCCS(=O)(=O)c2ccc(C(=O)CCC(=O)O)cc2)ccc(C(C)=O)c1O [Example 29, 4-(3-(4-Acetyl-3-hydroxy-2-propylphenoxy)-propylsulfonyl)-gamma-oxobenzenebutanoic acid]	78.9				
CCCc1c(OCCCOc2ccc([C@H](O)[C@@H](C)CC(=O)[O-])cc2)ccc(C(C)=O)c1O.[Na+] (relative stereo) [Example 103, Sodium (beta S^*, gamma R^*) 4-(3-(4-acetyl-3-hydroxy-2-propylphenoxy)propyloxy)-gamma-hydroxy-beta-methylbenzenebutanoate]		61.1	76.1	74.1	
CCCc1c(OCCCSc2ccc(C(=O)CCC#N)cc2)ccc(C(C)=O)c1O [Example 40, 4-(3-(4-acetyl-3-hydroxy-2-propyl-phenoxy)propylthio)-gamma-oxobenzenebutyronitrile]	89.4				
CCCc1c(OCCCSc2ccc([C@H](O)[C@@H](C)CC(=O)O)cc2)ccc(C(C)=O)c1O (relative stereo) [Example 78, (Beta S^*, gamma R^*)-sodium 4-(3-(4-acetyl-3-hydroxy-2-propylphenoxy)propylthio)-gamma-hydroxy-beta-methyl-benzenebutanoate]		27.1	70.1	76.1	% Inhib. (Dose 0.03 mg/kg p.o.): 14.1%; % Inhib. (Dose 0.3 mg/kg p.o.): 50.1%; % Inhib. (Dose 3 mg/kg p.o.): 74.1%
CCCc1c(OCCCS(=O)(=O)c2ccc([C@H](O)[C@@H](C)CC(=O)O)cc2)ccc(C(C)=O)c1O (relative stereo) [Example 77, (Beta S^*, gamma R^*) sodium 4-(3-(4-acetyl-3-hydroxy-2-propylphenoxy)propylsulfonyl)-gamma-hydroxy-beta-methylenzenebutanoate]	46.5				
